This data set is described as follows: xn = mol fraction of the nth substance listed. The note with it: Liquid, pressure decay method, x1 = 0.

Take `FC(F)(F)CC(F)(F)F` [1,1,1,3,3,3-hexafluoropropane] + CCCCCC[n+]1ccn(C)c1.O=S(=O)([N-]S(=O)(=O)C(F)(F)F)C(F)(F)F: the binary diffusion coefficient is, setting by setting: (303.15 K, 86 kPa) 1.55e-10 m2/s; (313.15 K, 85.5 kPa) 2.4e-10 m2/s; (323.15 K, 95.7 kPa) 4.09e-10 m2/s; (333.15 K, 90.1 kPa) 5.96e-10 m2/s; (343.15 K, 90.7 kPa) 8.42e-10 m2/s.
For the molecule `FC(F)CC(F)(F)F` [1,1,1,3,3-pentafluoropropane] + CCCCCC[n+]1ccn(C)c1.O=S(=O)([N-]S(=O)(=O)C(F)(F)F)C(F)(F)F, the binary diffusion coefficient (303.15 K, 50.4 kPa) amounted to 8.4e-11 m2/s; the binary diffusion coefficient (313.15 K, 63.9 kPa) is 1.22e-10 m2/s; the binary diffusion coefficient (323.15 K, 69.8 kPa) was 2.06e-10 m2/s; the binary diffusion coefficient (333.15 K, 74.9 kPa) was determined as 2.75e-10 m2/s; the binary diffusion coefficient (343.15 K, 84.6 kPa) is 3.47e-10 m2/s.
Consider `FC(C(F)(F)F)C(F)(F)F` [1,1,1,2,3,3,3-heptafluoropropane] + CCCCCC[n+]1ccn(C)c1.O=S(=O)([N-]S(=O)(=O)C(F)(F)F)C(F)(F)F, for which the binary diffusion coefficient is 2.72e-10 m2/s (303.15 K, 99.7 kPa); 3.5e-10 m2/s (313.15 K, 99.6 kPa); 5.28e-10 m2/s (323.15 K, 97.1 kPa); 9.6e-10 m2/s (333.15 K, 105 kPa); 1.26e-09 m2/s (343.15 K, 104.6 kPa).

Source of the values: the NIST ThermoML archive (doi:10.1016/j.jct.2018.04.004).
